Laboratory results reported in patent US20110053836A1, “USE OF DEFENSINS AGAINST TUBERCULOSIS” (priority 2008, published 2011).
Read-outs that look alike come from different tables or passages of the source.

Key:
Format in all cases: cell-based, Mycobacterium tuberculosis
[1] = test system: M. tuberculosis H37Rv; conditions: for Fold of reduction: RLU relative to buffer control; for MIC: concentration that reduces RLU by 90% (1 log), 96 hours
[2] = test system: M. tuberculosis
Procedure: The validation of the Relative Light Unit assay (RLU) was carried out by comparing it to conventional Colony Forming Unit (CFU) assay. In this assay, the cells were exposed to the different concentrations of the peptide for 96 hours and then plated onto 7H10 plates. The plates were incubated at 37° C. for 30 days and the colonies were enumerated.

[3] = test system: M. tuberculosis; remark: listed apart in the source
[4] = test system: H37Rv expressing LUX; conditions: 6.25 micrograms/ml; ~0.1 OD600 and ~1.0 OD600; 96 hours
[5] = peptide 25 micrograms/ml, buffer control 53503
[6] = peptide 6.25 micrograms/ml, buffer control 75380

Row | Substance | Fold of reduction ([1]; peptide 25 micrograms/ml) | RLU [1, 5] | MIC [1] | also measured
1 | SEQ ID NO: 12: plectasin variant, substitutions N5S + D9S + M13L + Q14R + N17V + A31S compared to SEQ ID NO: 2 (GFGCSGPWSEDDLRCHVHCKSIKGYKGGYCSKGGFVCKCY) | 13.7 | 3901 |  | 
2 | SEQ ID NO: 9: plectasin variant, substitutions N5R + M13V compared to SEQ ID NO: 2 (GFGCRGPWDEDDVQCHNHCKSIKGYKGGYCAKGGFVCKCY) | 31.8 | 1685 | 6.25 micrograms/ml | 
3 | SEQ ID NO: 7: plectasin variant, substitutions Q14R + K20R compared to SEQ ID NO: 2 (GFGCNGPWDEDDMRCHNHCRSIKGYKGGYCAKGGFVCKCY) | 40.0 | 1339 | 6.25 micrograms/ml | 
4 | SEQ ID NO: 14: plectasin variant, substitutions N5G + D9S + M13L + N17Q + A31T compared to SEQ ID NO: 2 (GFGCGGPWSEDDLQCHQHCKSIKGYKGGYCTKGGFVCKCY) | 49.4 | 1083 |  | MBC obtained by CFU ([2]; 96 hours exposure, plated on 7H10, 30 days): 6.25 micrograms/ml; Mode of action (bactericidal) ([2]; MIC by RLU equivalent to MBC by CFU): bactericidal; Inhibition of growth by OD600 ([3]; 6.25 micrograms/ml, T-25 flasks): completely inhibit the growth; MIC (=MBC) ([3]; confirmed by the assays of Examples 3 and 4 (CFU, OD600)): 6.25 micrograms/ml; Activity against early log and early stationary cells [4]: potent activity against organisms in both early log and early stationary phases of growth
5 | SEQ ID NO: 6: plectasin variant, substitutions Q14R + K26R + K38R compared to SEQ ID NO: 2 (GFGCNGPWDEDDMRCHNHCKSIKGYRGGYCAKGGFVCRCY) | 11.9 | 4483 |  | 
6 | plectasin [SEQ ID NO: 2, reference compound] | 25.7 | 2070 | around 25 micrograms/ml | 
7 | SEQ ID NO: 16: plectasin variant, substitutions D9G + Q14R + K23R compared to SEQ ID NO: 2 (GFGCNGPWGEDDMRCHNHCKSIRGYKGGYCAKGGFVCKCY) | 11.9 | 4495 |  | 
8 | SEQ ID NO: 3: plectasin variant, substitutions Q14K + K26R compared to SEQ ID NO: 2 (GFGCNGPWDEDDMKCHNHCKSIKGYRGGYCAKGGFVCKCY) | 23.2 | 2310 |  | 
9 | SEQ ID NO: 19: plectasin variant, substitutions D9S + Q14K + K26R compared to SEQ ID NO: 2 (GFGCNGPWSEDDMKCHNHCKSIKGYRGGYCAKGGFVCKCY) |  |  | ~6.25 micrograms/ml | Fold of reduction ([1]; peptide 6.25 micrograms/ml): 9.9; RLU [1, 6]: 7630
10 | SEQ ID NO: 4: plectasin variant, substitution K26R compared to SEQ ID NO: 2 (GFGCNGPWDEDDMQCHNHCKSIKGYRGGYCAKGGFVCKCY) | 28.1 | 1903 |  | 
11 | SEQ ID NO: 5: plectasin variant, substitution Q14F compared to SEQ ID NO: 2 (GFGCNGPWDEDDMFCHNHCKSIKGYKGGYCAKGGFVCKCY) | 34.1 | 1567 |  | 
12 | SEQ ID NO: 18: plectasin variant, substitutions D9S + Q14R + K26R compared to SEQ ID NO: 2 (GFGCNGPWSEDDMRCHNHCKSIKGYRGGYCAKGGFVCKCY) |  |  | ~6.25 micrograms/ml | Fold of reduction ([1]; peptide 6.25 micrograms/ml): 9.8; RLU [1, 6]: 7702
13 | SEQ ID NO: 11: plectasin variant, substitutions Q14R + K26R compared to SEQ ID NO: 2 (GFGCNGPWDEDDMRCHNHCKSIKGYRGGYCAKGGFVCKCY) | 14.8 | 3604 |  | 
14 | SEQ ID NO: 10: plectasin variant, substitutions M13K + K38R compared to SEQ ID NO: 2 (GFGCNGPWDEDDKQCHNHCKSIKGYKGGYCAKGGFVCRCY) | 46.4 | 1152 |  | 
15 | SEQ ID NO: 17: plectasin variant, substitutions D9S + M13L + Q14R + K26R compared to SEQ ID NO: 2 (GFGCNGPWSEDDLRCHNHCKSIKGYRGGYCAKGGFVCKCY) |  |  | ~6.25 micrograms/ml | Fold of reduction ([1]; peptide 6.25 micrograms/ml): 9.1; RLU [1, 6]: 8321
16 | SEQ ID NO: 15: plectasin variant, substitutions D9N + M13L + Q14R compared to SEQ ID NO: 2 (GFGCNGPWNEDDLRCHNHCKSIKGYKGGYCAKGGFVCKCY) | 12.9 | 4165 |  | 
17 | SEQ ID NO: 8: plectasin variant, substitution Q14L compared to SEQ ID NO: 2 (GFGCNGPWDEDDMLCHNHCKSIKGYKGGYCAKGGFVCKCY) | 24.9 | 2145 |  | 
18 | SEQ ID NO: 20: plectasin variant, substitutions D9S + M13L + Q14K + V36L compared to SEQ ID NO: 2 (GFGCNGPWSEDDLKCHNHCKSIKGYKGGYCAKGGFLCKCY) |  |  | 6.25 micrograms/ml | Fold of reduction ([1]; peptide 6.25 micrograms/ml): 14.1; RLU [1, 6]: 5355
19 | SEQ ID NO: 13: plectasin variant, substitutions N5G + M13L compared to SEQ ID NO: 2 (GFGCGGPWDEDDLQCHNHCKSIKGYKGGYCAKGGFVCKCY) | 20.8 | 2576 |  | 
